# Laboratory results taken from patent publication US6753335B2, “Quinolinyl-piperidin-4-ylidene-methyl-benzamide derivatives for the treatment of pain” (AstraZeneca AB, priority 2000, dated 2004).
# Columns and labels:
# Type in all cases: biochemical
# [1] = molecular target: T1, delta receptors, rat brain (Rattus norvegicus, UniProt P33533); assay: GTP[γ]35S binding functional assay, homogenised rat brain membranes
# T1 construct: from tissue; host or cells: rat brain homogenate
# Protocol: (§1) B. Mouse and rat brains were weighed and rinsed in ice-cold PBS (containing 2.5 mM EDTA, pH 7.4). The brains were homogenized with a polytron for 15 sec (mouse) or 30 sec (rat) in ice-cold lysis buffer (50mM Tris, pH 7.0, 2.5mM EDTA, with phenylmethylsulfonyl fluoride added just prior use to […] from a 0.5 M stock in DMSO:ethanol).
# (§2) The agonist activity of the compounds is measured by determining the degree to which the compounds receptor complex activates the binding of GTP to G-proteins to which the receptors are coupled. In the GTP binding assay, GTP[γ]^35S is combined with test compounds and membranes from HEK-293S cells expressing the cloned human opioid receptors or from homogenised rat and mouse brain. Agonists stimulate GTP[γ]^35S binding in these membranes. The EC50 and Emax values of compounds are determined from dose-response curves. Right shifts of the dose response curve by the delta antagonist naltindole are performed to verify that agonist activity is mediated through delta receptors.
# [2] = molecular target: T2, delta receptors, mouse brain (Mus musculus, UniProt P32300); assay: GTP[γ]35S binding functional assay, homogenised mouse brain membranes
# T2 construct: from tissue; host or cells: mouse brain homogenate
# T2 sequence (P32300 whole entry): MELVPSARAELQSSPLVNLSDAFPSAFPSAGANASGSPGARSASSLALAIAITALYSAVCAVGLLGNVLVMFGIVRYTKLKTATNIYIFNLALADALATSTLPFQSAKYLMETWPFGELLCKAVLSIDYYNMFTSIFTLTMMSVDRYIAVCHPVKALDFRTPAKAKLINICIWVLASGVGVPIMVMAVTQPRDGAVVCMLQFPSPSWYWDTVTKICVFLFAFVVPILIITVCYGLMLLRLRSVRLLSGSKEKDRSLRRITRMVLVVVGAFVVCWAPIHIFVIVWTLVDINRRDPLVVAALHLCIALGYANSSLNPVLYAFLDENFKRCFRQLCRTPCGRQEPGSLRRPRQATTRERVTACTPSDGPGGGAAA
# Protocol: as §1, §2
# cloned human δ receptor = molecular target: T3, cloned human δ receptor (Homo sapiens, UniProt P41143); assay: GTP[γ]35S binding functional assay, membranes from HEK-293S cells expressing cloned human opioid receptors (HDELTA)
# T3 construct: expressed in transfected cells; host or cells: human 293S (HEK-293S) cells, geneticin-selected
# T3 sequence (P41143 whole entry): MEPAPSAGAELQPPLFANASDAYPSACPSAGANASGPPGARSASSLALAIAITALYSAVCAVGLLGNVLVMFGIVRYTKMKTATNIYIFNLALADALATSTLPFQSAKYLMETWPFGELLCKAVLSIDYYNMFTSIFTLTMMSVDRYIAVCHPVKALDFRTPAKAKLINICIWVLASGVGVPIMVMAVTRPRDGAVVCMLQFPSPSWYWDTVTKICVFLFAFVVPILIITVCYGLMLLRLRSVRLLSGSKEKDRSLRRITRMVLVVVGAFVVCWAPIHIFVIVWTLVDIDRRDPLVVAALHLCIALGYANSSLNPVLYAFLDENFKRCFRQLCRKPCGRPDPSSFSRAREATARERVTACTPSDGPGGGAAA
# Protocol: A. Human 293S cells expressing cloned human μ, δ, and κ receptors and neomycin resistance were grown in suspension at 37° C. and 5% CO2 in shaker flasks containing calcium-free DMEM10% FBS, 5% BCS, 0.1% Pluronic F-68, and 600 μg/ml geneticin.
# Cells were pelleted and resuspended in lysis buffer (50 mM Tris, pH 7.0, 2.5 mM EDTA, with PMSF added just prior to use to 0.1 mM from a 0.1 M stock in ethanol), incubated on ice for 15 min, then homogenized with a polytron for 30 sec. The suspension was spun at 1000 g (max) for 10 min at 4° C. The supernatant was saved on ice and the pellets resuspended and spun as before. The supernatants from both spins were combined and spun at 46,000 g (max) for 30 min. The pellets were resuspended in cold Tris buffer (50 mM Tris/Cl, pH 7.0) and spun again. The final pellets were resuspended in membrane buffer (50 mM Tris, […], pH 7.0). Aliquots (1 ml) in polypropylene tubes were frozen in dry ice/ethanol and stored at −70° C. until use. The protein concentrations were determined by a modified Lowry assay with sodium dodecyl sulfate.
# as §2
# T1 sequence (P33533 whole entry): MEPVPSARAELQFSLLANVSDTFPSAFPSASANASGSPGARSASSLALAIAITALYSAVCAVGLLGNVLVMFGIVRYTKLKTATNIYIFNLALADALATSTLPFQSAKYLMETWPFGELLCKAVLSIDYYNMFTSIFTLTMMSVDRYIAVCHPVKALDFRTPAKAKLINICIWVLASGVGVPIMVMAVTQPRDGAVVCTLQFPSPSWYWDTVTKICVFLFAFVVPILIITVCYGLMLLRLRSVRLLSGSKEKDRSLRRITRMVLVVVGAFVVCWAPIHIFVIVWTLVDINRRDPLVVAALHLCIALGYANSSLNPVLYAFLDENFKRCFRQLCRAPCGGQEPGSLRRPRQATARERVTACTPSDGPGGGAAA
Structure (SMILES),Emax [1],Emax [2],Emax (cloned human δ receptor)
CCN(CC)C(=O)c1ccc(C(=C2CCN(Cc3c[nH]cn3)CC2)c2cccc3cccnc23)cc1 [Example 9],112%,123%,100%
"CCN(CC)C(=O)c1ccc(C(=C2CCN(Cc3ccsc3)CC2)c2cccc3cccnc23)cc1 [Example 6, N,N-diethyl-4-{8-quinolinyl[1-(3-thienylmethyl)-4-piperidinylidene]methyl}benzamide]",135%,140%,123%
"CCN(CC)C(=O)c1ccc(C(=C2CCN(Cc3ccco3)CC2)c2cccc3cccnc23)cc1 [Example 3, N,N-diethyl-4-[[1-(2-furylmethyl)-4-piperidinylidene](8-quinoline)methyl]benzamide]",130%,146%,103%
CCN(CC)C(=O)c1ccc(C(=C2CCN(Cc3ccncc3)CC2)c2cccc3cccnc23)cc1 [Example 10],109%,110%,118%
"CCN(CC)C(=O)c1ccc(C(=C2CCN(Cc3ccccc3)CC2)c2cccc3cccnc23)cc1 [Example 2, N,N-diethyl-4-(8-quinolinyl-N-benzyl-piperidin-4-ylidene-methyl)-benzamide]",104%,112%,90.5%
CCN(CC)C(=O)c1ccc(C(=C2CCN(Cc3ccccn3)CC2)c2cccc3cccnc23)cc1 [Example 7],126%,124%,97.6%
"CCN(CC)C(=O)c1ccc(C(=C2CCN(Cc3cccs3)CC2)c2cccc3cccnc23)cc1 [Example 4, N,N-diethyl-4-{8-quinolinyl[1-(2-thienylmethyl)-4-piperidinylidene]methyl}benzamide]",120%,140%,98.5%
CCN(CC)C(=O)c1ccc(C(=C2CCN(Cc3ncc[nH]3)CC2)c2cccc3cccnc23)cc1 [Example 8],148%,138%,111%
"CCN(CC)C(=O)c1ccc(C(=C2CCN(Cc3ccoc3)CC2)c2cccc3cccnc23)cc1 [Example 5, N,N-diethyl-4-[[1-(3-furylmethyl)-4-piperidinylidene](8-quinolinyl)methyl]benzamide]",135%,147%,99%
